“And” between values parts separate entries of the source, which are not always exact repeats. Identical values can stand only once. ± gives the standard deviation of the averaged measurements.
System: SW620
Assay: cell viability relative to lowest-dose well (resazurin, 96 h); higher = more viable
Conditions: RPMI + 10% FBS
Summary of the method: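 In 384-well plates, 50 µl RPMI with 10% FBS plus a metabolite supplement received 500 HCT116 or 1,000 SW620 cells per well. Dilution series of compounds, taken from 10 mM DMSO stocks, were added and the plates kept 96 h at 37 °C, 5% CO2. Viability, reported as percent of the lowest-dose well across independent replicate cultures, was measured as resazurin-to-resorufin conversion by fluorescence at 595 nm.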

O=c1[nH]cc(F)c(=O)[nH]1 [5-fluorouracil]
cell viability (0.01 µM, metabolite supplement: 1uM folinic acid): 102 ± 1.5%
cell viability (0.01 µM, metabolite supplement: 50uM thymidine + 1uM folinic acid): 105 ± 11%
cell viability (0.01 µM, metabolite supplement: 50uM thymidine): 106 ± 5.3%
cell viability (0.01 µM, metabolite supplement: vehicle): 99.5 ± 2.1%
cell viability (0.0278 µM, metabolite supplement: 1uM folinic acid): 100.2 ± 1%
cell viability (0.0278 µM, metabolite supplement: 50uM thymidine + 1uM folinic acid): 106 ± 11%
cell viability (0.0278 µM, metabolite supplement: 50uM thymidine): 99.3 ± 8.8%
cell viability (0.0278 µM, metabolite supplement: vehicle): 99.5 ± 4.3%
cell viability (0.0774 µM, metabolite supplement: 1uM folinic acid): 100 ± 1.6%
cell viability (0.0774 µM, metabolite supplement: 50uM thymidine + 1uM folinic acid): 103 ± 10%
cell viability (0.0774 µM, metabolite supplement: 50uM thymidine): 97.1 ± 7.4%
cell viability (0.0774 µM, metabolite supplement: vehicle): 101 ± 2.7%
cell viability (0.215 µM, metabolite supplement: 1uM folinic acid): 99.7 ± 3.2%
cell viability (0.215 µM, metabolite supplement: 50uM thymidine + 1uM folinic acid): 103 ± 10%
cell viability (0.215 µM, metabolite supplement: 50uM thymidine): 96.7 ± 11%
cell viability (0.215 µM, metabolite supplement: vehicle): 97.4 ± 1.6%
cell viability (0.599 µM, metabolite supplement: 1uM folinic acid): 99 ± 3.9%
cell viability (0.599 µM, metabolite supplement: 50uM thymidine + 1uM folinic acid): 100 ± 9%
cell viability (0.599 µM, metabolite supplement: 50uM thymidine + 250uM folic acid): 97.8 ± 1.9%
cell viability (0.599 µM, metabolite supplement: 50uM thymidine): 94.2 ± 11%
cell viability (0.599 µM, metabolite supplement: vehicle): 95.9% and 98.1%
cell viability (1.67 µM, metabolite supplement: 1uM folinic acid): 83.6 ± 3.9%
cell viability (1.67 µM, metabolite supplement: 50uM thymidine + 1uM folinic acid): 83.2 ± 9.2%
cell viability (1.67 µM, metabolite supplement: 50uM thymidine + 250uM folic acid): 79.1 ± 5.9%
cell viability (1.67 µM, metabolite supplement: 50uM thymidine): 74.8 ± 6.8%
cell viability (1.67 µM, metabolite supplement: 250uM folic acid): 83.4 ± 5.1%
cell viability (1.67 µM, metabolite supplement: vehicle): 80.3 ± 1.1%
cell viability (4.64 µM, metabolite supplement: 1uM folinic acid): 48.8 ± 6.7%
cell viability (4.64 µM, metabolite supplement: 50uM thymidine + 1uM folinic acid): 51.5 ± 7%
cell viability (4.64 µM, metabolite supplement: 50uM thymidine + 250uM folic acid): 52.8 ± 2%
cell viability (4.64 µM, metabolite supplement: 50uM thymidine): 49.1 ± 8.9%
cell viability (4.64 µM, metabolite supplement: 250uM folic acid): 51.4 ± 4.3%
cell viability (4.64 µM, metabolite supplement: vehicle): 53 ± 6.4%
cell viability (12.9 µM, metabolite supplement: 1uM folinic acid): 26.2 ± 4.8%
cell viability (12.9 µM, metabolite supplement: 50uM thymidine + 1uM folinic acid): 26.3 ± 6.1%
cell viability (12.9 µM, metabolite supplement: 50uM thymidine + 250uM folic acid): 26.3 ± 2.8%
cell viability (12.9 µM, metabolite supplement: 50uM thymidine): 26.6% and 22.5%
cell viability (12.9 µM, metabolite supplement: 250uM folic acid): 27.3 ± 2.3%
cell viability (12.9 µM, metabolite supplement: vehicle): 29.5% and 26.5%
cell viability (35.9 µM, metabolite supplement: 1uM folinic acid): 12 ± 2.2%
cell viability (35.9 µM, metabolite supplement: 50uM thymidine + 1uM folinic acid): 11.6 ± 2.7%
cell viability (35.9 µM, metabolite supplement: 50uM thymidine + 250uM folic acid): 11.7 ± 0.68%
cell viability (35.9 µM, metabolite supplement: 50uM thymidine): 10.4 ± 2.5%
cell viability (35.9 µM, metabolite supplement: 250uM folic acid): 11.9 ± 0.55%
cell viability (35.9 µM, metabolite supplement: vehicle): 11.6 ± 2.5%
cell viability (0.0001 M, metabolite supplement: 1uM folinic acid): 6.83 ± 1.4%
cell viability (0.0001 M, metabolite supplement: 50uM thymidine + 1uM folinic acid): 7.17 ± 1.8%
cell viability (0.0001 M, metabolite supplement: 50uM thymidine + 250uM folic acid): 6.77 ± 0.21%
cell viability (0.0001 M, metabolite supplement: 50uM thymidine): 6.07% and 5.27%
cell viability (0.0001 M, metabolite supplement: 250uM folic acid): 6.37 ± 0.25%
cell viability (0.0001 M, metabolite supplement: vehicle): 6.87% and 5.97%

— the supplement of paper PMC10132981, “Formate overflow drives toxic folate trapping in MTHFD1 inhibited cancer cells” (Nature Metabolism, 2023)
